Results: US20130023681A1, “STABILIZED DOXERCALCIFEROL AND PROCESS FOR MANUFACTURING THE SAME” (ALPHORA RESEARCH INC., priority 2010, published 2013)
Entries after “also recorded” stand apart in the source; their conditions may differ.

How the values were obtained:
[1] = Accelerated storage study (HPLC analysis of stored samples); format: physicochemical
Description: (§1) Samples of material generated by the aforementioned procedure were quarantined, stored and subjected to 2 stability studies:
(§2) Both studies employed ICH-compliant stability chambers for controlled storage, and the following HPLC method for analysis of samples:
(§3) HPLC Detector/wavelength: Photo Diode Array Detector/190-400 nm
(§4) Column: Waters SUNFIRE C18, 4.6 by 150 mm, 3.5 μm
(§5) Column/sample Temperature: 25° C./5° C.
(§6) Flow Rate/injection volume: 1.2 mL per min/10.00 μL
(§7) Sample concentration: 1 mg/mL
(§8) Diluent: Water: DCM: MeOH: ACN (10: 5: 10: 75)
(§9) Eluent: A (H2O); B (ACN); C (MeOH)
Samples were subjected to the following conditions: 25±2° C./60±2% R.H., Argon headspace. Samples were stored in ICH-compliant stability chambers, sampled at 1, 3 and 6 months, and analyzed using the described HPLC method.

[2] = Long term stability study (HPLC analysis of stored samples); format: physicochemical
Description: as §1, §2, §3, §4, §5, §6, §7, §8, §9
Samples were subjected to the following conditions: 5±3° C. Argon headspace, −20±5° C., Argon headspace. Samples were stored in ICH-compliant stability chambers, sampled at 1, 3, 6 and 9 months, and analyzed using the described HPLC method.

- HPLC purity after accelerated storage ([1]; 25±2° C./60±2% R.H., Argon headspace, time-points 1, 3 and 6 months, initial (t=0) HPLC a/a purity >99.0% a/a): ≥ 99.0%
- HPLC assay after accelerated storage ([1]; 25±2° C./60±2% R.H., Argon headspace, time-points 1, 3 and 6 months, initial (t=0) HPLC w/w assay >99.0% w/w): ≥ 99.0 % w/w
- Change in purity on accelerated storage (in words) ([1]; samples of purity 99% and above, 1, 3 and 6 months at 25±2° C., relative humidity 60±2%, argon headspace): no reduction in purity
- HPLC purity after long term storage ([2]; 5±3° C. Argon headspace, −20±5° C. Argon headspace, time-points 1, 3, 6 and 9 months, initial (t=0) HPLC a/a purity >99.0% a/a): ≥ 99.0%
- HPLC assay after long term storage ([2]; 5±3° C. Argon headspace, −20±5° C. Argon headspace, time-points 1, 3, 6 and 9 months, initial (t=0) HPLC w/w assay >99.0% w/w): ≥ 99.0 % w/w
Structure (SMILES): C=C1/C(=C\C=C2/CCC[C@]3(C)[C@@H]([C@H](C)/C=C/[C@H](C)C(C)C)CC[C@@H]23)C[C@@H](O)C[C@@H]1O [1α-hydroxyvitamin D2]
- Change in purity / stability in ICH stability studies (in words) ([2]; samples of purity 99% and above, six months under argon headspace at either −20±5° C. or 5±3° C.): unexpectedly high stability; also recorded: no reduction in purity
